Measurements as given in patent US6653306B1, “Epoxy-steroidal aldosterone antagonist and angiotensin II antagonist combination therapy” (G.D. Searle & Co., priority 1995, dated 2003).
“And” between values parts separate entries of the source, which are not always exact repeats. Equal values may be shown once.

Experiments:
pressor response to AII = test: Assay C: In vivo intragastric pressor assay response for AII antagonists; design: species or system rat; conditions: intragastric, or intraduodenal for examples listed; for Assay C Inhibition: dose cell empty (dose not given)
Outline: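 Conscious male Sprague-Dawley rats with arterial and venous catheters received 30 ng/kg i.v. angiotensin II boluses before and at 30–180 min after gavage of compound (standard 3 mg/kg in 0.5% methylcellulose). Pressor rise in mmHg measured; percent inhibition calculated versus averaged control response at each time point.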

rabbit aortic rings = test: Assay B: In vitro vascular smooth muscle response for AII (antagonist activity, pA2); assay type: cell-based; conditions: in vitro vascular smooth muscle response, two values per cell separated by / are separate determinations; for Kb: Oryctolagus cuniculus, read-out: Assay B pA2 (converted)
Outline: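 Endothelium-denuded thoracic aortic rings from male New Zealand white rabbits, in oxygenated Krebs at 37 °C under ~1 g tension; isometric contraction to AII (3×10^−10 to 1×10^−5 M).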

[1] = biological target: angiotensin II AT1 receptor; test: Assay A: Angiotensin II binding activity (125I-AII displacement, rat uterine membrane preparation)
[2] = Rattus norvegicus, dose 3 mg/kg

Compound	IC50 [1] [nM]	Assay C Inhibition (pressor response to AII) [%]	Kb (rabbit aortic rings) [nM]	inhibition at 100 mg/kg (pressor response to AII; Rattus norvegicus, dose 100 mg/kg) [%]	Assay C Duration (pressor response to AII; dose 100 mg/kg) [min]	inhibition at 30 mg/kg (pressor response to AII; Rattus norvegicus, dose 30 mg/kg) [%]	Assay C Duration (pressor response to AII; dose 30 mg/kg) [min]	inhibition at 3 mg/kg (pressor response to AII; [2]) [%]	Assay C Duration (pressor response to AII; dose 3 mg/kg) [min]	Assay B pA2 (rabbit aortic rings)
CCCCc1nn(CCCC)c(=O)n1Cc1ccc(-c2ccccc2C(=O)O)cc1 [Compound 78]	101	93	100							
CCCCc1nc2cnncc2n1Cc1ccc(-c2ccccc2C(=O)O)cc1 [Compound 108]	720		5010	45	90					
CCCCc1nc2c(O)nnc(O)c2n1Cc1ccc(-c2ccccc2C(=O)O)cc1 [Compound 109]	250		50.1			50	30			
CCCCc1nc(CCCC)n(Cc2ccc(-n3c(Cl)cc(Cl)c3-c3nnn[nH]3)cc2)n1 [Compound 143]	0.052	85	20							
CCCCc1nc(Cl)c(Cl)n1Cc1ccc(-n2cccc2C(=O)O)cc1 [Compound 147]	5.8		2510					74	5 to 10	
CCCCc1nc(Cc2ccc(-c3ccccc3-c3nnn[nH]3)nc2)n(CCCC)n1 [Compound 150]	14		9.33					25	>180	
CCCCn1nc(CCC)nc1Cc1ccc(-c2ccccc2-c2nnn[nH]2)nc1 [Compound 152]	150		34.7					10	140	
CCCCn1nc(-c2ccccc2Cl)nc1Cc1ccc(-c2ccccc2-c2nnn[nH]2)nc1 [Compound 158]	54		5.89					30	>180	
CCCn1nc(C(F)(F)CCC)nc1Cc1ccc(-c2ccccc2-c2nnn[nH]2)nc1 [Compound 169]	150		16.6					15	180	
CCCCn1nc(C(OCC)OCC)nc1Cc1ccc(-c2ccccc2-c2nnn[nH]2)nc1 [Compound 176]	9.8		20.4					10	150	
CCCCc1nc(C(F)(F)CCC)nn1Cc1ccc(-c2ccccc2-c2nnn[nH]2)nc1 [Compound 247]	9.4		5.5					20	180	
CCCCc1nc(C(F)(F)CCC)n(Cc2ccc(-c3ccccc3-c3nnn[nH]3)nc2)n1 [Compound 248]	20		20.9					10		
CCCCc1nc(C(=O)N(C)C(C)(C)C)nn1Cc1ccc(-c2ccccc2-c2nnn[nH]2)nc1 [Compound 255]	12		24.5					20	>180	

The next lines start with results.

IC50 [1] [nM]	Compound	Assay C Inhibition (pressor response to AII) [%]	Kb (rabbit aortic rings) [nM]	inhibition at 100 mg/kg (pressor response to AII; Rattus norvegicus, dose 100 mg/kg) [%]	Assay C Duration (pressor response to AII; dose 100 mg/kg) [min]	inhibition at 30 mg/kg (pressor response to AII; Rattus norvegicus, dose 30 mg/kg) [%]	Assay C Duration (pressor response to AII; dose 30 mg/kg) [min]	inhibition at 3 mg/kg (pressor response to AII; [2]) [%]	Assay C Duration (pressor response to AII; dose 3 mg/kg) [min]	Assay B pA2 (rabbit aortic rings)
18	CCCCc1nn(CCCc2ccccc2)c(=O)n1Cc1ccc(-c2ccccc2-c2nn[nH]n2)cc1 [Compound 81]	40	10							
3.6	CCCCc1nn(CC(O)c2ccccc2)c(=O)n1Cc1ccc(-c2ccccc2-c2nn[nH]n2)cc1 (centres unmarked) [Compound 83]	15	5.01							
16	CCCCc1nn(CC(=O)OC(C)(C)C)c(=O)n1Cc1ccc(-c2ccccc2-c2nn[nH]n2)cc1 [Compound 84]	20	79.4							
30	CCCCc1nn(CC(OCC(=O)O)c2ccccc2)c(=O)n1Cc1ccc(-c2ccccc2-c2nn[nH]n2)cc1 (centres unmarked) [Compound 91]	40	2.51							
10	CCCCc1cn(CCc2ccccc2)c(=O)n1Cc1ccc(-c2ccccc2-c2nnn[nH]2)cc1 [Compound 133]		2					20	180	
22	CCCCc1cn(CCc2cccs2)c(=O)n1Cc1ccc(-c2ccccc2-c2nnn[nH]2)cc1 [Compound 134]		0.501					35	180	
16	CCCCc1cn(-c2ccccc2Cl)c(=O)n1Cc1ccc(-c2ccccc2-c2nnn[nH]2)cc1 [Compound 135]		3.16					35	>180	
9.8	CCCCc1cn(-c2c(OC)cccc2OC)c(=O)n1Cc1ccc(-c2ccccc2-c2nnn[nH]2)cc1 [Compound 273]							25	>180	8.53 and 8.61
13	CCCCc1cn(-c2c(C)cccc2Cl)c(=O)n1Cc1ccc(-c2ccccc2-c2nnn[nH]2)cc1 [Compound 274]							35	>180	9.06 and 8.85
6.3	CCCCc1cn(-c2c(C)cccc2C)c(=O)n1Cc1ccc(-c2ccccc2-c2nnn[nH]2)cc1 [Compound 275]		0.851					40	>180	
33	CCCCc1cn(-c2c(CC)cccc2CC)c(=O)n1Cc1ccc(-c2ccccc2-c2nnn[nH]2)cc1 [Compound 276]							< 20		8.71 and 8.64
30	CCCCc1cn(-c2c(C)cc(C)cc2C)c(=O)n1Cc1ccc(-c2ccccc2-c2nnn[nH]2)cc1 [Compound 278]							50	>180	8.49 and 8.51
